# Measurements taken from patent publication US9260408B2, “Dihydroquinoline-2-one derivatives” (Hoffmann-La Roche Inc., priority 2011, dated 2016).
# Structures can show the parent of a compound that is named as a salt.
# How the values were obtained:
# human CYP11B2 = target: T1, human CYP11B2 (Homo sapiens, UniProt P19099); assay: G-402 cellular enzyme assay, human CYP11B2 (aldosterone release, HTRF); type: cell-based; conditions: G-402 cells expressing human CYP11B2; 1 μM Deoxycorticosterone
# T1 construct: expressed in transfected cells
# T1 sequence (P19099 25-503): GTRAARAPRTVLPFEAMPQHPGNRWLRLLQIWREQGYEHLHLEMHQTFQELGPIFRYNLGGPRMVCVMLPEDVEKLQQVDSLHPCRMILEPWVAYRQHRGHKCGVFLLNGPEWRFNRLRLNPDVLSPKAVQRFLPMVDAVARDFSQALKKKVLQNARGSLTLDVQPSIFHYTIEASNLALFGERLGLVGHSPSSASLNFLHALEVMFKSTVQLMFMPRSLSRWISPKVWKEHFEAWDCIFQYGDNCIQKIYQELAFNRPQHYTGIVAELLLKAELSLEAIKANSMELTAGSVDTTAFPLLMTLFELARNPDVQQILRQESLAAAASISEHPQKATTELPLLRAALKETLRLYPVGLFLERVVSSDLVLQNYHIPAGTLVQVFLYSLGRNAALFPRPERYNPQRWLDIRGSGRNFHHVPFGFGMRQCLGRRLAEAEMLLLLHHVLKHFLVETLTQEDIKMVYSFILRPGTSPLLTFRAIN
# In short: (§1)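 G-402 cells stably expressing human CYP11B2 or CYP11B1, in DMEM/F12 with 2.5% charcoal-treated FCS, were incubated 16 h with compound plus 1 μM deoxycorticosterone (CYP11B2) or 1 μM deoxycortisol (CYP11B1). Aldosterone or cortisol in the supernatant measured by HTRF; EC50 from a 4-parameter MMF fit.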
# human CYP11B1 = target: T2, human CYP11B1 (Homo sapiens, UniProt P15538); assay: G-402 cellular enzyme assay, human CYP11B1 (cortisol release, HTRF); type: cell-based; conditions: G-402 cells expressing human CYP11B1; 1 μM Deoxycortisol
# T2 construct: expressed in transfected cells
# T2 sequence (P15538 25-503): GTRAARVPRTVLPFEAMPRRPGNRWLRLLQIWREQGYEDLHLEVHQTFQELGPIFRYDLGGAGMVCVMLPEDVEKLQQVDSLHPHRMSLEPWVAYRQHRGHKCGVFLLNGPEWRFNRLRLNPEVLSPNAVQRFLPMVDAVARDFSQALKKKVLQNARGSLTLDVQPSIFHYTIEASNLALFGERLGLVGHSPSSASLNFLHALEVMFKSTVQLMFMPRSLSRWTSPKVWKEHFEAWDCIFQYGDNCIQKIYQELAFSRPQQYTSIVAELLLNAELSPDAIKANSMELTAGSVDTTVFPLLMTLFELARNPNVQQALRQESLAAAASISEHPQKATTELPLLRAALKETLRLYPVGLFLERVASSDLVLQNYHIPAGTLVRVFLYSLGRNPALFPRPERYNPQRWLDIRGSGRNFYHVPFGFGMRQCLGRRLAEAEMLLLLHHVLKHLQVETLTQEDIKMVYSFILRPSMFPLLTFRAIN
# In short: as §1
structure (smiles),measurement,setting,value
"Cc1noc(C)c1C(=O)NCc1cncc(-c2ccc3c(c2)CCC(=O)N3C)c1Cl [Example 219, 3,5-Dimethyl-isoxazole-4-carboxylic acid [4-chloro-5-(1-methyl-2-oxo-1,2,3,4-tetrahydro-quinolin-6-yl)-pyridin-3-ylmethyl]-amide]",EC50,human CYP11B2,12 nM
same,EC50,human CYP11B1,557 nM
"CN1C(=O)CCc2cc(-c3cncc(CNC(=O)c4ncccc4Cl)c3Cl)ccc21 [Example 220, 3-Chloro-pyridine-2-carboxylic acid [4-chloro-5-(1-methyl-2-oxo-1,2,3,4-tetrahydro-quinolin-6-yl)-pyridin-3-ylmethyl]-amide]",EC50,human CYP11B2,2 nM
same,EC50,human CYP11B1,40 nM
"Cc1c(CN)cncc1-c1ccc2c(c1)CCC(=O)N2C [Example 222, 6-(5-Aminomethyl-4-methyl-pyridin-3-yl)-1-methyl-3,4-dihydro-1H-quinolin-2-one hydrochloride]",EC50,human CYP11B2,4 nM
same,EC50,human CYP11B1,1010 nM
"Cc1noc(C)c1C(=O)NCc1cncc(-c2ccc3c(c2)CCC(=O)N3C)c1C [Example 223, 3,5-Dimethyl-isoxazole-4-carboxylic acid [4-methyl-5-(1-methyl-2-oxo-1,2,3,4-tetrahydro-quinolin-6-yl)-pyridin-3-ylmethyl]-amide]",EC50,human CYP11B2,36 nM
same,EC50,human CYP11B1,2860 nM
"Cc1c(CNC(=O)c2ncccc2Cl)cncc1-c1ccc2c(c1)CCC(=O)N2C [Example 224, 3-Chloro-pyridine-2-carboxylic acid [4-methyl-5-(1-methyl-2-oxo-1,2,3,4-tetrahydro-quinolin-6-yl)-pyridin-3-ylmethyl]-amide]",EC50,human CYP11B2,6 nM
same,EC50,human CYP11B1,173 nM
"Cc1c(CN[S@+]([O-])C(C)(C)C)cncc1-c1cc2c(cc1F)N(C)C(=O)CC2 [Example 225, (R)-2-Methyl-propane-2-sulfinic acid [5-(7-fluoro-1-methyl-2-oxo-1,2,3,4-tetrahydro-quinolin-6-yl)-4-methyl-pyridin-3-ylmethyl]-amide]",EC50,human CYP11B2,6 nM
same,EC50,human CYP11B1,691 nM
"Cc1c(CN)cncc1-c1cc2c(cc1F)N(C)C(=O)CC2 [Example 226, 6-(5-Aminomethyl-4-methyl-pyridin-3-yl)-7-fluoro-1-methyl-3,4-dihydro-1H-quinolin-2-one hydrochloride]",EC50,human CYP11B2,11 nM
same,EC50,human CYP11B1,1770 nM
"Cc1c(CNC(=O)c2ncccc2Cl)cncc1-c1cc2c(cc1F)N(C)C(=O)CC2 [Example 227, 3-Chloro-pyridine-2-carboxylic acid [5-(7-fluoro-1-methyl-2-oxo-1,2,3,4-tetrahydro-quinolin-6-yl)-4-methyl-pyridin-3-ylmethyl]-amide]",EC50,human CYP11B2,4 nM
same,EC50,human CYP11B1,157 nM
"CN(Cc1cncc(-c2ccc3c(c2)CCC(=O)N3C)c1Cl)C(=O)c1ncccc1Cl [Example 228, 3-Chloro-pyridine-2-carboxylic acid [4-chloro-5-(1-methyl-2-oxo-1,2,3,4-tetrahydro-quinolin-6-yl)-pyridin-3-ylmethyl]-methyl-amide]",EC50,human CYP11B2,9 nM
same,EC50,human CYP11B1,356 nM
"Cc1c(CN(C)C(=O)c2ncccc2Cl)cncc1-c1ccc2c(c1)CCC(=O)N2C [Example 229, 3-Chloro-pyridine-2-carboxylic acid methyl-[4-methyl-5-(1-methyl-2-oxo-1,2,3,4-tetrahydro-quinolin-6-yl)-pyridin-3-ylmethyl]-amide]",EC50,human CYP11B2,10 nM
same,EC50,human CYP11B1,656 nM
"CN1C(=O)CCc2cc(-c3cncc(C4=CN(C(=O)OC(C)(C)C)CCC4)c3)ccc21 [Example 231, 5′-(1-Methyl-2-oxo-1,2,3,4-tetrahydro-quinolin-6-yl)-5,6-dihydro-4H-[3,3′]bipyridinyl-1-carboxylic acid tert-butyl ester]",EC50,human CYP11B2,19 nM
same,EC50,human CYP11B1,802 nM
"CN1C(=O)CCc2cc(-c3cncc(OCCNC(=O)OC(C)(C)C)c3)c(F)cc21 [Example 232, {2-[5-(7-Fluoro-1-methyl-2-oxo-1,2,3,4-tetrahydro-quinolin-6-yl)-pyridin-3-yloxy]-ethyl}-carbamic acid tert-butyl ester]",EC50,human CYP11B2,1 nM
same,EC50,human CYP11B1,16 nM
"CN1C(=O)CCc2cc(-c3cncc(OCCNC(=O)c4ncccc4Cl)c3)ccc21 [Example 233, 3-Chloro-pyridine-2-carboxylic acid {2-[5-(1-methyl-2-oxo-1,2,3,4-tetrahydro-quinolin-6-yl)-pyridin-3-yloxy]-ethyl}-amide]",EC50,human CYP11B2,13 nM
same,EC50,human CYP11B1,219 nM
"CCS(=O)(=O)NCc1cncc(-c2cc3c4c(c2)CCN4C(=O)CC3)c1 [Example 234, Ethanesulfonic acid [5-(4-oxo-1,2,5,6-tetrahydro-4H-pyrrolo[3,2,1-ij]quinolin-8-yl)-pyridin-3-ylmethyl]-amide]",EC50,human CYP11B2,27 nM
same,EC50,human CYP11B1,2260 nM
"CCS(=O)(=O)NCc1cncc(-c2cc3c4c(c2)CCC(=O)N4CCC3)c1 [Example 235, Ethanesulfonic acid [5-(3-oxo-2,3,6,7-tetrahydro-1H,5H-pyrido[3,2,1-ij]quinolin-9-yl)-pyridin-3-ylmethyl]-amide]",EC50,human CYP11B2,109 nM
same,EC50,human CYP11B1,4660 nM
"O=C(NCc1cncc(-c2cc3c4c(c2)CCN4C(=O)CC3)c1)c1ncccc1Cl [Example 236, 3-Chloro-pyridine-2-carboxylic acid [5-(4-oxo-1,2,5,6-tetrahydro-4H-pyrrolo[3,2,1-ij]quinolin-8-yl)-pyridin-3-ylmethyl]-amide]",EC50,human CYP11B2,3 nM
same,EC50,human CYP11B1,77 nM
"CN(Cc1cncc(-c2cc3c4c(c2)CCN4C(=O)CC3)c1)C(=O)c1ncccc1Cl [Example 237, 3-Chloro-pyridine-2-carboxylic acid methyl-[5-(4-oxo-1,2,5,6-tetrahydro-4H-pyrrolo[3,2,1-ij]quinolin-8-yl)-pyridin-3-ylmethyl]-amide]",EC50,human CYP11B2,8 nM
same,EC50,human CYP11B1,143 nM
"CN1C(=O)CCc2cc(-c3cncc(OCCN)c3)c(F)cc21 [Example 238, 6-[5-(2-Amino-ethoxy)-pyridin-3-yl]-7-fluoro-1-methyl-3,4-dihydro-1H-quinolin-2-one hydrochloride]",EC50,human CYP11B2,5 nM
same,EC50,human CYP11B1,513 nM
"CCS(=O)(=O)NCCOc1cncc(-c2cc3c(cc2F)N(C)C(=O)CC3)c1 [Example 243, Ethanesulfonic acid {2-[5-(7-fluoro-1-methyl-2-oxo-1,2,3,4-tetrahydro-quinolin-6-yl)-pyridin-3-yloxy]-ethyl}-amide]",EC50,human CYP11B2,1 nM
same,EC50,human CYP11B1,26 nM
"CN1C(=O)CCc2cc(-c3cncc(OCCNC(=O)c4ncccc4Cl)c3)c(F)cc21 [Example 244, 3-Chloro-pyridine-2-carboxylic acid {2-[5-(7-fluoro-1-methyl-2-oxo-1,2,3,4-tetrahydro-quinolin-6-yl)-pyridin-3-yloxy]-ethyl}-amide]",EC50,human CYP11B2,2 nM
same,EC50,human CYP11B1,75 nM
"CN1C(=O)CCc2cc(-c3cncc(O[C@H]4CC[C@H](NS(C)(=O)=O)CC4)c3)ccc21 [Example 245, N-{(trans)-4-[5-(1-Methyl-2-oxo-1,2,3,4-tetrahydro-quinolin-6-yl)-pyridin-3-yloxy]-cyclohexyl}-methanesulfonamide]",EC50,human CYP11B2,1 nM
same,EC50,human CYP11B1,72 nM
"Cc1noc(C)c1C(=O)NCc1cncc(-c2cc3c(cc2F)N(C)C(=O)CC3)c1C [Example 246, 3,5-Dimethyl-isoxazole-4-carboxylic acid [5-(7-fluoro-1-methyl-2-oxo-1,2,3,4-tetrahydro-quinolin-6-yl)-4-methyl-pyridin-3-ylmethyl]-amide]",EC50,human CYP11B2,13 nM
same,EC50,human CYP11B1,4720 nM
